Assay results reported in US6087493A, “Porphyrin compounds as telomerase inhibitors” (Regents of the University of Texas System, priority 1998, dated 2000).
Where two headings read alike, the source gives them in different places.

Key:
human telomerase = human telomerase (Homo sapiens, UniProt O14746); assay: Telomerase inhibition, primer extension assay in HeLa cell extract; assay type: biochemical
MCF-7 = assay: Cytotoxicity (MTT) MCF-7; assay type: cell-based, human; details: Homo sapiens, MCF7; MCF-7 (breast), 4-7 days; read-out: IC 50 cytotoxicity
Protocol: (§1) The cells were cultured in the presence of the porphyrins incubator for 4-7 days and then treated with 3-(4,5-dimethylthiazol-2-yl)-2,5-diphenyl-tetrazolium bromide (MTT). Formazan concentration was quantitated by absorbance at 570 nm.

BT-20 = assay: Cytotoxicity (MTT) BT-20; assay type: cell-based, human; details: Homo sapiens; BT-20 (breast), 4-7 days; read-out: IC 50 cytotoxicity
Protocol: as §1

PC3 = assay: Cytotoxicity (MTT) PC3; assay type: cell-based, human; details: Homo sapiens, PC-3; PC3 (prostate), 4-7 days; read-out: IC 50 cytotoxicity
Protocol: as §1

DU145 = assay: Cytotoxicity (MTT) DU145; assay type: cell-based, human; details: Homo sapiens, DU-145; DU145 (prostate), 4-7 days; read-out: IC 50 cytotoxicity
Protocol: as §1

LNCap = assay: Cytotoxicity (MTT) LNCap; assay type: cell-based, human; details: Homo sapiens; LNCap (prostate), 4-7 days; read-out: IC 50 cytotoxicity
Protocol: as §1

Raji = assay: Cytotoxicity (MTT) Raji; assay type: cell-based, human; details: Homo sapiens; Raji (lymphoma), 4-7 days; read-out: IC 50 cytotoxicity
Protocol: as §1

[1] = Cytotoxicity (MTT) NHLF normal lung fibroblasts; assay type: cell-based; details: human, nhlf cells; NHLF (normal), 4-7 days; read-out: IC 50 cytotoxicity
Protocol: as §1
All porphyrins were obtained from Midcentury, Posen, Ill. The experimental work with porphyrins was performed under minimum exposure to light. All human tumor cell lines and normal human breast cells Hs578Bst were purchased from the American Type Culture Collection. Normal human lung fibroblasts NHLF were obtained from Clonetics Corporation. The cell lines were grown according to the suppliers' instructions.

HeLa = assay: cells; assay type: cell-based, human; details: Homo sapiens; HeLa, MTT (n = 3 ± SEM); read-out: Cytotoxicity
MCF7 cells = assay: Nuclear localization of TMPyP4 in MCF7 cells; assay type: cell-based, human
Protocol: MCF7 cells were seeded at 5×10^5 cells per flask and cultured in the presence of 0, 50, or 100 μM TMPyP4 for 7 days with one exchange of medium. The cells were harvested with trypsin-EDTA, washed with PBS and counted using a Coulter counter. The cells were then pelleted by centrifugation at 700 g and lysed in a hypotonic solution (0.1×PBS);the resulting lysate was sedimented at 700 g for 10 min. The supernatant was removed and the pellet was dissolved in 0.5 ml of 2% SDS. Absorbance of the supernatants and pellet was measured at 423 nm. TMPyP4 diluted in 2% SDS containing 1 mg/ml salmon sperm DNA was used for the standard curve.
Several reports indicate that porphyrins localize specifically in tumor tissue, although sites of subcellular localization may vary widely with porphyrin structure and net charge (De Paolis et al., 1985). […] To gain insight into the subcellular distribution of cationic porphyrins, the inventors have cultured MCF7 cells with 0, 50, or 100 μM TMPyP4 for 7 days.

sea urchin embryos = tested on: sea urchin embryos
Protocol: Lytechinus pictus sea urchins were purchased from Marinus Inc. (Long Beach, Calif.) and maintained at 15° C. in refrigerated aquaria containing Instant Ocean synthetic sea water, following a described procedure [Vafa, 1996 #300]. For polyspermic fertilization, 0.01 vol freshly prepared stock sperm suspension (25 ml ASW containing 2 ml undiluted semen) was added to the eggs suspended for 10 min at 1% concentration in ASW adjusted to pH 9.0 with NH4 OH and stirred at 60 rpm with motor-driven Teflon paddles. Ten min after insemination, the fertilized eggs were allowed to settle, and the supernatant ASW containing sperm was aspirated and replaced with fresh ASW. The embryos were cultured at 18° C. Twenty min after fertilization TMPyP4 or TMPyP4.Pt^II (100 μM final concentration) was added from a concentrated stock in DMSO to 1% embryo suspensions. Equivalent amounts of DMSO (final 0.1%) were added to control egg suspensions. At measured times after insemination, the embryos were pelleted by centrifugation and resuspended in Carnoy's fixative (ethanol:acetic acid, 3:1) for at least 1 hr. After fixation the embryos were pelleted and resuspended successively in: (1) ethanol:acetic acid, 1:1 for 5-15 min: (2) 45% acetic acid for 5-15 min; (3) room temperature 1 N HCl for 1-2 min: (4) 60° C. 1 N HCl for 7-8 min; (5) room temperature 1 N HCl for 1-2 min; (6) Schiffs reagent for 90-120 min; and (7) 45% acetic acid before affixing the embryos to microscope slides. Embryo samples were placed on microscope slides, covered with coverslips, and frozen on a bed of dry ice. After at least 30 min, the coverslips were popped off using a razor blade and the slides were immediately plunged into Coplin jars containing 95% ethanol for 5-10 min. The slides were then transferred to Coplin jars containing 100% ethanol for 3-5 min. After removing the slides and allowing them to air dry, the embryos were mounted with one drop Permount (Fisher) under a coverglass.
The inventors examined whether treatment of the embryos with G-quadroplex interactive agents can cause observable chromosomal abnormalities. A time course of the embryo development was followed in the presence of 10 μM and 100 μM concentrations of TMPyP4 or TMPyP4.Pt^II.

[2] = tested on: single-stranded sequence bearing four human telomeric repeats
Protocol: The DNA was labeled with 32p at the 5'-end and stored in buffer (10 mM Tris-HCl, 1 mM EDTA, pH 8.0) at 3000 cpm/μl. For each photocleavage reaction, 10 μl of DNA (~5 ng) was mixed with 10 μl of 200 mM KCl, boiled for 10 min, and cooled to room temperature. For the control studies, 10 μl of distilled water was added instead of the KCl solution. The mixtures were transferred to a 96 well plate, 2 μl of 1 μM aqueous TMPyP4 solution added, and the samples exposed to a 24 W fluorescent day-light under a glass filter for various periods of time. The reactions were stopped with 100 μl of calf thymus DNA (0.1 μg/μl), and after phenol-chloroform extraction, the samples were subjected to strand breakage treatment and ethanol precipitation (Han and Hurley, 1996).
A single-stranded sequence bearing four human telomeric repeats was treated with TMPyP4 and then exposed to light.

[3] = tested on: cultured human dermal fibroblasts; details: Georgiou et al., 1994, cited from earlier work

Sequence of human telomerase (O14746 whole entry): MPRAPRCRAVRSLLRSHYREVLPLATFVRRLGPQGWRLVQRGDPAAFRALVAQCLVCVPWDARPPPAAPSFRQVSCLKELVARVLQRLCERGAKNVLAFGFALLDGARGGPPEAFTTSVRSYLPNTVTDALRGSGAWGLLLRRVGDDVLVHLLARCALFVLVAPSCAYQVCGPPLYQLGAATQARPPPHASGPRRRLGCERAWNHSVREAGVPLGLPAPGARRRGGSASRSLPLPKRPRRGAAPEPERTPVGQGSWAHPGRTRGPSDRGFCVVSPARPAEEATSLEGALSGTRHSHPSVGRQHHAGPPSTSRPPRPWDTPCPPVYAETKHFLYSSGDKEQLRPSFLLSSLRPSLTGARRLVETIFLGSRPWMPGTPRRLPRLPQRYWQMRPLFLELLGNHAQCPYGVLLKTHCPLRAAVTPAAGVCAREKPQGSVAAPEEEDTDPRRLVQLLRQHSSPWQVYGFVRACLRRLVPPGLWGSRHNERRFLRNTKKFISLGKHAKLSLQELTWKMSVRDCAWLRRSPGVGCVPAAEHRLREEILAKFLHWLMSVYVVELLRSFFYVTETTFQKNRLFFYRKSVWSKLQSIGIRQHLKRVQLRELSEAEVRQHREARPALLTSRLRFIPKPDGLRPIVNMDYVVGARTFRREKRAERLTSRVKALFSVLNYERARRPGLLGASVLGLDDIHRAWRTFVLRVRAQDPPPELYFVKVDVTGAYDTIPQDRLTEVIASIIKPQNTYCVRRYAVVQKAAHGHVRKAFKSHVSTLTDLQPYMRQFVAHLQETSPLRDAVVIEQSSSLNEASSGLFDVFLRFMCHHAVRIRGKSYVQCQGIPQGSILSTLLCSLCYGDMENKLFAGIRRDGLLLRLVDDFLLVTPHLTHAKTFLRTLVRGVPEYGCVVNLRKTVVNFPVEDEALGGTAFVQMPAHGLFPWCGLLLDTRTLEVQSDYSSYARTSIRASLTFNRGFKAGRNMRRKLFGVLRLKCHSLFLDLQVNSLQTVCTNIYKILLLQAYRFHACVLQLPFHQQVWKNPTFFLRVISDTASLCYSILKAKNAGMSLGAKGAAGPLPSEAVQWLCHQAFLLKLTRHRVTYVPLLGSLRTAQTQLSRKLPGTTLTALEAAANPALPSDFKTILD

C[n+]1ccc(-c2c3nc(c(-c4cc[n+](C)cc4)c4ccc([nH]4)c(-c4cc[n+](C)cc4)c4nc(c(-c5cc[n+](C)cc5)c5ccc2[nH]5)C=C4)C=C3)cc1 [TMPyP4, 5,10,15,20-tetra-(N-methyl-4-pyridyl)porphine]
% Inhibition of telomerase (human telomerase; 25 µM): 60% | IC50 (human telomerase; IC50 telomerase): 6.5 ± 1.4 µM | IC50 (human telomerase; IC50 telomerase (text)): 6.5 ± 1.4 µM | IC50 (human telomerase; Telomerase Inhibition): 15 µM | inhibition at 25 µM (human telomerase; read-out: amount of inhibition of telomerase): 72% | IC50 (MCF-7): 49.6 µM | IC50 (BT-20): 106 µM | IC50 (PC3): 184 µM | IC50 (DU145): 93.6 µM | IC50 (LNCap): 22.8 µM | IC50 (Raji): 11.9 µM | CC50 [1]: 13.5 µM | IC50 (HeLa): 18.7 ± 3.89 µM | cytoplasm as % of nuclear fraction concentration (MCF7 cells; 50 μM TMPyP4, 7 days): 3.3% | porphyrin concentration in the nuclear pellet (MCF7 cells; 50 μM TMPyP4, 7 days): 1.39 nmoles/10^6 cells | porphyrin in cytoplasm (MCF7 cells; 50 μM TMPyP4, 7 days): 47.3 pmoles/10^6 cells | cytoplasm as % of nuclear pellet concentration (MCF7 cells; 100 μM TMPyP4, 7 days): 5.5% | porphyrin concentration in the nuclear fraction (MCF7 cells; 100 μM TMPyP4, 7 days): 7.81 nmoles/10^6 cells | porphyrin in cytoplasmic fraction (MCF7 cells; 100 μM TMPyP4, 7 days): 434 pmoles/10^6 cells | calculated concentration in the nucleus (MCF7 cells; assuming nucleus 1/100 of cell volume): 1.4 to 78 mM | calculated concentration in the cytoplasm (MCF7 cells; assuming volume of 10^6 cells 10-100 μl): 0.47 to 434 µM | differences from controls in embryos (sea urchin embryos; 10 μM, 150 min after fertilization): no definitive differences were seen | condensed chromosome length / chromosomal effects (sea urchin embryos; 100 μM): condensed chromosomes were longer than in the untreated controls | proliferation and mitosis in embryos (sea urchin embryos; in vivo): significantly decreases proliferative rates in the developing embryos and increases the percent of the cell in mitosis | toxicity to embryos (sea urchin embryos; in vivo): generally non-toxic to the embryos | cell number and morphology of embryos (sea urchin embryos; later time points): fewer cells, many very misshapen and variable in size relative to the controls | first signs of ciliary motility (sea urchin embryos; treated embryos): 9 h | photocleavage selectivity [2]: clear selectivity for cleavage at the 5'-ApG-3' step at G1 and G7, and 5'-GpT-3' step at G6 and G12 | uptake / nuclear accumulation [3]: rapidly accumulate (within min) in the nuclei of cultured human dermal fibroblasts | uptake / nuclear accumulation ([3]; listed as tetra(N-methyl-4-pyridyl)porphyrin): taken up by cells and localized in organelles known to contain DNA
